The source of these data is patent US12226426B2, “Combination therapy” (IMPERIAL COLLEGE INNOVATIONS LIMITED, priority 2018, dated 2025).

The subject of one experiment is alkB mutants. Particulars: MMS 20 mM, alkB mutants compared with WT, FIG. 1.
Another experiment deals with WT E. coli. The experiment is described as follows: Alkylating-agent sensitivity assay (colony forming units). Particulars: MMS 20 mM, 30 minutes at 37° C., FIG. 1.

Turning to `COS(C)(=O)=O` [MMS, Methyl methanesulfonate], the “Sensitivity to MMS (CFU)” value in the experiment with alkB mutants is listed as “significantly increased”. The “effect on bacterial growth (CFU)” value in the experiment on WT E. coli is listed as “minimal effect on bacterial growth”.
